Experimental data reported in patent publication US20220241249A1, “PHARMACEUTICAL COMPOSITION AND KIT CONTAINING NOVEL PENAM DERIVATIVE OR SALT THEREOF AND ONE OR MORE COMPOUNDS SELECTED FROM beta-LACTAMASE INHIBITORY COMPOUND AND ANTIBACTERIAL COMPOUND OR SALTS THEREOF” (priority 2019, published 2022).
Converted amounts (≈) assume the structure as drawn. Where two headings read alike, the source gives them in different places.

Legend:
[1] = tested on: multidrug-resistant Pseudomonas aeruginosa strain (S-2838 strain); assay: Test for protection against systemic infection in mouse with multidrug-resistant Pseudomonas aeruginosa; format: in vivo; settings: sc, 72 h, read-out: survival rate 3 days after the inoculation with bacteria
Procedure: As mice, ICR male SPF mice (4 weeks old: 10 mice per group) were used. Clinically isolated multidrug-resistant Pseudomonas aeruginosa strain (S-2838 strain) cultured overnight on a Mueller-Hinton agar plate at 37° C. was cultured on a cation-adjusted Mueller Hinton medium for 5 hours, and then diluted 20-fold with a 10% mucin/phosphate buffer, thereby preparing an inoculum. An infection was induced by intraperitoneally inoculating the mice with the inoculum at 0.5 mL (about 10^6 CFU/mouse). Each test compound was dissolved in physiological saline, and 1 hour after the infection, the compound was subcutaneously administered once to the mice at 40 mg/kg. The control group was administered with the same amount of physiological saline used as a vehicle. The number of surviving mice was recorded 3 days after the infection.
A test for protection against systemic infection in a mouse with multidrug-resistant Pseudomonas aeruginosa was performed in the same manner as in Test Example 2.

[2] = tested on: OXA-48-containing Klebsiella pneumoniae strain (Y-1062); assay: Antibacterial activity evaluation test, MIC by broth microdilution (CLSI); format: cell-based; settings: for MIC: Klebsiella pneumoniae
Procedure, shortened: (§1)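 MIC (μg/mL) = lowest drug concentration showing no visible bacterial growth after 16–20 h at 35° C. in cation-adjusted Mueller Hinton broth. Inoculum: agar-grown cells at 0.5 McFarland, diluted 10-fold.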

[3] = tested on: NDM-1-containing Klebsiella pneumoniae strain (Y-1007); assay: as above; format: cell-based; settings: for MIC: Klebsiella pneumoniae
Procedure, shortened: as §1

[4] = tested on: Pseudomonas aeruginosa strain ATCC27853; assay: as above; format: cell-based; settings: Pseudomonas aeruginosa, ATCC27853
Procedure, shortened: as §1

[5] = tested on: AmpC-derepressed Pseudomonas aeruginosa mutant strain (S-3028); assay: as above; format: cell-based; settings: for MIC: Pseudomonas aeruginosa
Procedure, shortened: as §1

[6] = tested on: IMP-1-containing Pseudomonas aeruginosa strain (S-2838); assay: as above; format: cell-based; settings: for MIC: Pseudomonas aeruginosa
Procedure, shortened: as §1

[7] = tested on: GES-19 and GES-20-containing Pseudomonas aeruginosa strain (S-3759); assay: as above; format: cell-based; settings: for MIC: Pseudomonas aeruginosa
Procedure, shortened: as §1

[8] = tested on: VIM-2-containing Pseudomonas aeruginosa strain (S-3779); assay: as above; format: cell-based; settings: for MIC: Pseudomonas aeruginosa
Procedure, shortened: as §1

[9] = tested on: KPC-2-containing Klebsiella pneumoniae strain (Y-995); assay: as above; format: cell-based; settings: for MIC: Klebsiella pneumoniae
Procedure, shortened: as §1

[10] = tested on: CTX-M-15-containing Escherichia coli strain (TK-1747); assay: as above; format: cell-based; settings: for MIC: Escherichia coli
Procedure, shortened: as §1

[11] = tested on: Klebsiella pneumoniae Y-1069 strain producing OXA-48 and CTX-M-15 (strain F); assay: MIC of test compound alone or with β-lactamase inhibitor at 4 μg/mL; format: cell-based; settings: for MIC: Klebsiella pneumoniae, Strain F
Procedure: (§2) The evaluation test for antibacterial activity was performed in the same manner as in Test Example 1.
(§3) An antibacterial activity evaluation test was performed in the same manner as in Test Example 6.
(§4) As the bacterial strain, the strains B, C, and D producing β-lactamase and a Klebsiella pneumoniae Y-1069 strain (hereinafter, called strain F) producing OXA-48 and CTX-M-15 were used.

[12] = tested on: Escherichia coli TK-3113 strain producing IMP-8 (strain D); assay: as above; format: cell-based; settings: Escherichia coli
Procedure: (§5) By using a broth microdilution method, the combinational effect of a test compound and a β-lactamase inhibitor was evaluated.
as §2
Escherichia coli TK-3113 strain producing IMP-8 (hereinafter, called strain D),
as §3, §4

[13] = tested on: Klebsiella pneumoniae Y-1020 strain producing KPC-3 and SHV-12 (strain B); assay: as above; format: cell-based; settings: Klebsiella pneumoniae, Strain B, read-out: MIC
Procedure: as §5, §2

[14] = tested on: Klebsiella pneumoniae Y-1133 strain producing NDM-1, OXA-48, and CTX-M-15 (strain C); assay: as above; format: cell-based; settings: Klebsiella pneumoniae
Procedure: as §5, §2
Klebsiella pneumoniae Y-1133 strain producing NDM-1, OXA-48, and CTX-M-15 (hereinafter, called strain C),
as §3, §4

[15] = test compound alone (β-lactamase inhibitor N/A)

CC(C)[C@H](O/N=C(\C(=O)NC1C(=O)N2C[C@@](C(=O)O)(N3CCN(NC(=O)C(=O)c4ccc(O)c(O)c4Cl)C3=O)S[C@H]12)c1csc(N)n1)C(=O)O (stereo partly drawn) [Example 114, (3R,5R,6R)-6-((Z)-2-(2-aminothiazol-4-yl)-2-(((S)-1-carboxy-2-methylpropoxy)imino)-acetamido)-3-(3-(2-(2-chloro-3,4-dihydroxy-phenyl)-2-oxoaceta-mido)-2-oxoimidazol-idin-1-yl)-7-oxo-4-thia-1-azabicyclo[3.2.0]-heptane-3-carboxylic acid]
responders at 40 mg/kg [1]: ≥ 90%
MIC [2]: 0.25 µg/mL (≈ 0.331 µM)
MIC [3]: < 0.06 µg/mL
MIC [4]: 2 µg/mL (≈ 2.65 µM)
MIC [5]: 1 µg/mL (≈ 1.32 µM)
MIC [6]: 4 µg/mL (≈ 5.3 µM)
MIC [7]: 2 µg/mL (≈ 2.65 µM)
MIC [8]: 1 µg/mL (≈ 1.32 µM)
MIC [9]: 0.25 µg/mL (≈ 0.331 µM)
MIC [10]: 0.25 µg/mL (≈ 0.331 µM)

CC(C)(O/N=C(\C(=O)NC1C(=O)N2C[C@@](C(=O)O)(N3CCN(NC(=O)/C(=N\O)c4ccc(O)c(O)c4Cl)C3=O)S[C@H]12)c1csc(N)n1)C(=O)O (stereo partly shown) [Example 117]
responders at 40 mg/kg [1]: ≥ 90%
MIC [2]: 0.5 µg/mL (≈ 0.661 µM)
MIC [3]: < 0.06 µg/mL
MIC [4]: 2 µg/mL (≈ 2.65 µM)
MIC [5]: 0.25 µg/mL (≈ 0.331 µM)
MIC [6]: 2 µg/mL (≈ 2.65 µM)
MIC [7]: 2 µg/mL (≈ 2.65 µM)
MIC [8]: 0.5 µg/mL (≈ 0.661 µM)
MIC [9]: 0.25 µg/mL (≈ 0.331 µM)
MIC [10]: 0.12 µg/mL (≈ 0.159 µM)

COCC(NC(=O)C(=O)c1ccc(O)c(O)c1Cl)C(=O)NN1CCN([C@]2(C(=O)O)CN3C(=O)C(NC(=O)/C(=N\OC(C)(C)C(=O)O)c4csc(N)n4)[C@H]3S2)C1=O (stereo partly drawn) [Example 139, (3R,5R,6R)-6-((Z)-2-(2-aminothiazol-4-yl)-2-(((2-carboxypropan-2-yl)oxy)imino)aceta-mido)-3-(3-((R)-2-(2-(2-chloro-3,4-dihy-droxyphenyl)-2-oxo-acetamido)-3-methoxy-propanamido)-2-oxo-imidazolidin-1-yl)-7-oxo-4-thia-1-azabicyclo-[3.2.0]heptane-3-car-boxylic acid]
responders at 40 mg/kg [1]: ≥ 90%
MIC [2]: 4 µg/mL (≈ 4.75 µM)
MIC [3]: 0.12 µg/mL (≈ 0.142 µM)
MIC [4]: 1 µg/mL (≈ 1.19 µM)
MIC [5]: 0.5 µg/mL (≈ 0.594 µM)
MIC [6]: 0.5 µg/mL (≈ 0.594 µM)
MIC [7]: 2 µg/mL (≈ 2.37 µM)
MIC [8]: 1 µg/mL (≈ 1.19 µM)
MIC [9]: 1 µg/mL (≈ 1.19 µM)
MIC [10]: 2 µg/mL (≈ 2.37 µM)

CC(C)(O/N=C(\C(=O)NC1C(=O)N2C[C@@](C(=O)O)(N3CCN(NC(=O)C(=O)c4c(F)cc(O)c(O)c4Cl)C3=O)S[C@H]12)c1csc(N)n1)C(=O)O (stereo partly shown) [Example 143]
MIC [11, 15]: 8 µg/mL
MIC ([11]; with AVI at 4 μg/mL): 0.25 µg/mL
MIC ([11]; with CVA at 4 μg/mL): 4 µg/mL
MIC ([11]; with NAC at 4 μg/mL): 0.12 µg/mL
MIC ([11]; with SBT at 4 μg/mL): 4 µg/mL
MIC ([11]; with TAZ at 4 μg/mL): 4 µg/mL
MIC ([11]; with ZID at 4 μg/mL): < 0.015 µg/mL
antibacterial activity in combination with a β-lactamase inhibitor versus without ([11]; for all the bacterial strains (strains B, C, D and F), summary of Tables 51 and 52): higher antibacterial activity
MIC [12, 15]: 0.5 µg/mL
MIC ([12]; with NAC at 4 μg/mL): < 0.015 µg/mL
MIC ([12]; with ZID at 4 μg/mL): < 0.015 µg/mL
Antibacterial activity (MIC) Klebsiella pneumoniae Y-1062 ([2]; Klebsiella pneumoniae Y-1062): 2 µg/mL
Antibacterial activity (MIC) Klebsiella pneumoniae Y-1007 ([3]; Klebsiella pneumoniae Y-1007): < 0.06 µg/mL
Antibacterial activity (MIC) Pseudomonas aeruginosa ATCC 27853 [4]: 0.5 µg/mL
Antibacterial activity (MIC) Pseudomonas aeruginosa S-3028 ([5]; Pseudomonas aeruginosa S-3028): 0.12 µg/mL
Antibacterial activity (MIC) Pseudomonas aeruginosa S-2838 ([6]; Pseudomonas aeruginosa S-2838): 0.5 µg/mL
Antibacterial activity (MIC) Pseudomonas aeruginosa S-3759 ([7]; Pseudomonas aeruginosa S-3759): 1 µg/mL
Antibacterial activity (MIC) Pseudomonas aeruginosa S-3779 ([8]; Pseudomonas aeruginosa S-3779): 0.25 µg/mL
Antibacterial activity (MIC) Klebsiella pneumoniae Y-995 ([9]; Klebsiella pneumoniae Y-995): 0.12 µg/mL
Antibacterial activity (MIC) Escherichia coli TK-1747 ([10]; Escherichia coli TK-1747): 0.12 µg/mL
MIC [13, 15]: 2 µg/mL
MIC ([13]; with AVI at 4 μg/mL): 0.5 µg/mL
MIC ([13]; with CVA at 4 μg/mL): 1 µg/mL
MIC ([13]; with NAC at 4 μg/mL): 0.03 µg/mL
MIC ([13]; with VOB at 4 μg/mL): 1 µg/mL
MIC ([13]; with ZID at 4 μg/mL): 0.03 µg/mL
MIC ([14]; with NAC at 4 μg/mL): 0.06 µg/mL
MIC ([14]; with ZID at 4 μg/mL): < 0.015 µg/mL
